Assay results as given in PubChem BioAssay (NCI).
Several values for one entry are separate records, joined by “and”; a condition that tells them apart may be missing. Equal values may be shown once.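 How tested: cells in 96-well plates exposed to compound for 48 hours at five concentrations. GI50: concentration for 50% inhibition of growth. TGI denotes the concentration required for complete inhibition of growth.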 Activity calls are given as the source filed them. No stated cut-off is given here; in the data, active means GI50 below about 0.43 µM; inactive means the rest.

How the values were obtained:
Test in all cases: NCI-60 cell line screen, 48 h
LXFL 529 NSCLC = system: LXFL 529 NSCLC
SNB-78 CNS = system: SNB-78 CNS
XF 498 CNS = system: XF 498 CNS
DLD-1 colon = system: DLD-1 colon
HOP-18 NSCLC = system: HOP-18 NSCLC
KM20L2 colon = system: KM20L2 colon
M19-MEL melanoma = system: M19-MEL melanoma
MDA-N = system: MDA-N

Compound | TGI (LXFL 529 NSCLC) | TGI (SNB-78 CNS) | TGI (XF 498 CNS) | TGI (DLD-1 colon) | TGI (HOP-18 NSCLC) | TGI (KM20L2 colon) | TGI (M19-MEL melanoma) | TGI (MDA-N) | also measured
CC(=O)CC(=O)CCC(=O)Nc1cccc(C(F)(F)F)c1 | > 100 µM | > 100 µM | > 100 µM | > 100 µM | > 100 µM | > 100 µM | – | – | –
N#C/C(=C1\OC(=N)C(c2ccc(Cl)cc2Cl)C1=O)c1ccc(Cl)cc1Cl (configuration not stated) | > 100 µM | > 100 µM | > 100 µM | > 100 µM | – | > 100 µM | > 100 µM | – | –
Cc1cc2c(c(=O)o1)C1=S(SC(c3ccccc3)=C1)S2 (configuration not stated) | – | – | – | – | – | – | – | > 100 µM | –
Cc1ccc(S(=O)(=O)NC(=O)OC23COCN2COC3)cc1 | – | – | – | – | – | – | – | > 100 µM | –
CC1CCC2(C)C(CC=C(C=O)C2(O)C=O)C12CO2 (configuration not stated) | 3.33 µM | 5.46 µM | 7.21 µM | – | – | 6.09 µM | 5.75 µM | – | –
O=c1[nH]c(=S)[nH]c(-c2ccccc2)c1Cc1c(O)ccc2ccccc12 | – | – | – | – | – | – | – | 89.5 µM | –
CC1=NNC(=S)NCCCN2CCN(CCCNC(=S)NN=C(C)C=NNC(=S)NCCCN3CCN(CCCNC(=S)NN=C1)CC3)CC2 | – | – | – | – | – | – | – | > 100 µM | –
C/C(=N\NC(=S)N1CCN(c2ccccn2)CC1)c1ncccn1 | – | 23.1 µM | 13.8 µM | 4.98 µM and 14.3 µM | 8.39 µM and 20.3 µM | – | 2.67 µM and 11.2 µM | 14.8 µM | GI50 (MDA-N): 0.233 µM; GI50 (DLD-1 colon): 0.0258 µM; GI50 (HOP-18 NSCLC): 4.4 µM; GI50 (M19-MEL melanoma): 1.54 µM
O=C(Cc1ccccc1)C(c1ccccc1)S(=O)(=O)c1ccccc1 (configuration not stated) | > 100 µM | > 100 µM | > 100 µM | > 100 µM | > 100 µM | > 100 µM | > 100 µM | – | –
CC(C)(C)c1cc(C(=O)O)c2c(c1)C(=O)OC2(c1ccccc1)c1ccccc1C(=O)O (configuration not stated) | > 100 µM | – | > 100 µM | > 100 µM | > 100 µM | > 100 µM | > 100 µM | – | –
Nc1nc(C(=O)O)c(N=Nc2ccccc2)c(=O)[nH]1 | – | – | – | – | – | – | – | > 100 µM | –
O=C(CO)C1CC2C=CC1C2 (configuration not stated) | > 100 µM | > 100 µM | > 100 µM | – | – | – | > 100 µM | – | –
COC1=C(OC)[C@]2(OC)c3c(O)c(OC)c4c(c3O[C@@]23O[C@@H](c2ccccc2)CC=C3C1=O)[C@@H](OC)C[C@H](c1ccccc1)O4 | – | – | – | – | – | – | – | 1.16 µM | GI50 (MDA-N): 0.34 µM
c1ccc(-c2csc3ncn4cnnc4c23)cc1 | > 100 µM | > 100 µM | – | > 100 µM | > 100 µM | > 100 µM | > 100 µM | – | –
COc1c(CC=C(C)C)c(O)c(C(CC(C)C)c2c(O)c(CC=C(C)C)c(O)c(C(C)=O)c2O)c(O)c1C(C)=O (configuration not stated) | – | 17.5 µM | 2.09 µM | 10.9 µM | 14.7 µM | – | 5.13 µM | 8.08 µM | –
Cc1cc(O)c2c3c(ccc2c1)C(=O)c1c(O)cccc1C3=O | – | – | – | – | – | – | – | 0.353 µM | –
c1ccc(CN2COc3c(ccc4c5c(ccc34)CN(Cc3ccccc3)CO5)C2)cc1 | > 100 µM | > 100 µM | – | > 100 µM | > 100 µM | > 100 µM | > 100 µM | > 100 µM | –

Compound | TGI (LXFL 529 NSCLC) | TGI (SNB-78 CNS) | TGI (XF 498 CNS) | TGI (DLD-1 colon) | TGI (HOP-18 NSCLC) | TGI (KM20L2 colon) | TGI (M19-MEL melanoma) | TGI (MDA-N) | also measured
CC(=O)[CH-]C(C)=O.CC(=O)[CH-]C(C)=O.CC(=O)[CH-]C(C)=O.[Ga+3] | > 100 µM | – | > 100 µM | > 100 µM | – | > 100 µM | – | – | GI50 (LXFL 529 NSCLC): > 100 µM; GI50 (XF 498 CNS): > 100 µM; GI50 (DLD-1 colon): > 100 µM; GI50 (KM20L2 colon): > 100 µM
O=[N+]([O-])/C=C/c1ccc(Cl)cc1Cl | 27.1 µM | – | – | 84.4 µM | – | 42.1 µM | 19.5 µM | – | –
CC(N)CC(=O)O (configuration not stated) | > 5000 µM | > 5000 µM | – | > 5000 µM | > 5000 µM | > 5000 µM | > 5000 µM | – | –
COc1ccc(OC)c(Cc2cnc3nc(N)nc(N)c3c2C)c1 | – | – | – | – | – | – | – | > 57.7 µM | –
[Cl][Cu][Cl] | – | – | – | – | – | – | – | > 10 µM | GI50 (MDA-N): > 10 µM
O=[N+]([O-])c1cc(Cc2cc([N+](=O)[O-])c3cccnc3c2O)c(O)c2ncccc12 | – | – | – | – | – | – | – | > 80 µM | –
NC(=O)CC(N)c1nn[nH]n1 (configuration not stated) | – | – | – | – | – | – | – | > 100 µM | –
COc1c(OC(C)C)cc2cc(O)c(C(=O)NC3Cc4ccc(c(Cl)n4)O[C@@H]4C=C5C#C/C(=C\C#CC6OC56C4OC4CC(C)(O)C(O)C(C)O4)C(OC4CC(O)C(N(C)C)C(C)O4)COC3=O)cc2c1OC (some centres not stated) | – | 37.5 µg/mL | – | 37.5 µg/mL | – | – | 37.5 µg/mL | > 36.3 µM | outcome (LXFL 529 NSCLC): inactive; GI50 (SNB-78 CNS): 37.5 µg/mL; outcome (XF 498 CNS): inactive; GI50 (DLD-1 colon): 8.16 µg/mL; outcome (HOP-18 NSCLC): inactive; outcome (KM20L2 colon): inactive; GI50 (M19-MEL melanoma): 1.68 µg/mL
O=c1[nH]c2ccccc2n1C1CCN(CCCC(c2ccc(F)cc2)c2ccc(F)cc2)CC1 | 13.4 µM | 32 µM | 11.6 µM | 13.9 µM | 29 µM | 5.87 µM | 13.1 µM | 21.4 µM | –
CCOC(=O)C(Cc1ccc(N(CCCl)CCCl)cc1)NC(=O)C(Cc1ccccc1)NC(C)=O (configuration not stated) | – | – | – | – | – | – | – | > 0.371 µM | –
O=C(c1c(O)cc(O)cc1O)C1Cc2ccccc21 (configuration not stated) | > 100 µM | > 100 µM | – | > 100 µM | > 100 µM | > 100 µM | > 100 µM | – | –
CCOC(=O)C(CCCNC(=O)OC(C)(C)C)N(Cc1ccc(OC)cc1OC)C(=O)CC(=O)CP(=O)(OCC)OCC (configuration not stated) | > 100 µM | – | – | > 100 µM | > 100 µM | > 100 µM | > 100 µM | – | –
CC(=O)OCC(CC[CH2][Sn]([Cl])([Cl])[c]1ccccc1)OC(C)=O (configuration not stated) | 27 µM | 48.7 µM | 32.2 µM | 47.2 µM | 40 µM | 52 µM | 62.1 µM | – | GI50 (LXFL 529 NSCLC): 14 µM; GI50 (SNB-78 CNS): 27.5 µM; GI50 (XF 498 CNS): 17.8 µM; GI50 (DLD-1 colon): 21.2 µM; GI50 (HOP-18 NSCLC): 16.5 µM; GI50 (KM20L2 colon): 24.8 µM; GI50 (M19-MEL melanoma): 25.1 µM
CN1CCCC1c1cccnc1.O=C(O)c1ccccc1O.O=C([O-])c1ccccc1[OH2+].O=C([O-])c1ccccc1[OH2+].[Mn+2] (configuration not stated) | – | – | – | – | – | – | – | > 100 µM | GI50 (MDA-N): > 100 µM
CN(C)c1nc(N)c(C#N)c(C#N)c1C#N | – | – | – | – | – | – | – | > 10 µM | –
C[P+]1(c2ccccc2)CCCCC1 | > 100 µM | > 100 µM | – | > 100 µM | – | > 100 µM | > 100 µM | – | –
